Measured values taken from ChEMBL document CHEMBL1201862, “PubChem BioAssay data set” (2004).
The source made the active and inactive calls.

Assays:
Steroidogenic factor 1 = Steroidogenic factor 1 (Homo sapiens, UniProt Q13285); test: Counterscreen for inverse agonists of the liver receptor homolog-1 (LRH-1; NR5A2): Luminescence-based cell-based high throughput dose response assay to identify inverse agonists of the Steroidogenic Factor 1 Nuclear Receptor (SF1; NR5A1).; format: functional
[1] = nonselective StAR promoter luciferase inhibitors – cell-based, luminescence, luciferase reporter, counter-screen for LRH-1 inverse agonist project, dose response (AID 651969); format: functional
[2] = target: Nuclear receptor subfamily 5 group A member 2 (Homo sapiens, UniProt O00482); format: functional, cell-based;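 further: HEK293T cells transfected with LRH-1 and a StAR promoter luciferase reporter; potency for inhibitors that lower LRH-1 driven reporter light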
[3] = Luminescence Cell-Based Dose Response HTS to Identify Inhibitors of 5'UTR Stem-Loop Driven Prion Protein mRNA Translation in H4 Neuroglioblastoma Cells. [Related pubchem assays: 1827 (Project Summary), 1813 (Primary HTS)]; format: functional
[4] = A549 cell cytotoxicity, dose response, cytotoxicity control, plate reader, cherry-pick, antagonist series (AID 743412); format: functional, cell-based
[5] = toxicity toward HepG2 liver cells – cell-based, plate reader, cherry-pick, antagonist series, cytotoxicity control, dose response (AID 743416); format: functional
[6] = luciferase reporter signal reduction – luminescence, H4-C neuroglioblastoma cells, dose response (AID 2458); format: functional, cell-based;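 further: H4 neuroglioblastoma cells stably carrying a luciferase reporter gene fusion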
[7] = alpha-synuclein stem-loop translation blockers – luminescence, H4 neuroglioblastoma cells, dose confirmation, confirmation (AID 2454); format: functional, cell-based;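 further: H4 neuroglioblastoma cells carrying an alpha-synuclein 5'UTR luciferase reporter; potency for inhibition of the luciferase signal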
[8] = luciferase reporter signal suppression in cells – H4 neuroglioma cells, luminescence, dose response (AID 1990); format: functional, cell-based
[9] = target: Luciferin 4-monooxygenase (Photinus pyralis, UniProt P08659); test: inhibition of purified Photinus pyralis luciferase – biochemical, luminescence, dose response (AID 1891)
[10] = Luminescence Cell-Based Dose Confirmation HTS to Identify Inhibitors of Platelet Dense Granule Release. [Related pubchem assays: 1663 (Primary HTS), 1678 (Summary of Project)]; format: functional
[11] = Luminescence-based counterscreen assay for KLF5 inhibitors: dose response cell-based high throughput screening assay to identify cytotoxic compounds using the IEC-6 intestinal epithelial cell line. [Related pubchem assays: 1700 (Primary screen.), 1834 (Confirmation screen.), 1858 (Summary AID.), 1905 (Counterscreen.)]; format: functional
[12] = target: T1, Heat shock factor protein 1 (Mus musculus, UniProt P38532); test: decrease of HSF1-responsive luciferase luminescence – cell-based, NIH3T3, dose retest, confirmation (AID 2382); format: functional;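 further: NIH3T3 fibroblasts with HSF1-driven luciferase reporter stressed by proteasome inhibitor MG132; luminescence from HSF1-driven luciferase expression after 8 hours of MG132 stress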
T1 sequence (P38532 whole entry): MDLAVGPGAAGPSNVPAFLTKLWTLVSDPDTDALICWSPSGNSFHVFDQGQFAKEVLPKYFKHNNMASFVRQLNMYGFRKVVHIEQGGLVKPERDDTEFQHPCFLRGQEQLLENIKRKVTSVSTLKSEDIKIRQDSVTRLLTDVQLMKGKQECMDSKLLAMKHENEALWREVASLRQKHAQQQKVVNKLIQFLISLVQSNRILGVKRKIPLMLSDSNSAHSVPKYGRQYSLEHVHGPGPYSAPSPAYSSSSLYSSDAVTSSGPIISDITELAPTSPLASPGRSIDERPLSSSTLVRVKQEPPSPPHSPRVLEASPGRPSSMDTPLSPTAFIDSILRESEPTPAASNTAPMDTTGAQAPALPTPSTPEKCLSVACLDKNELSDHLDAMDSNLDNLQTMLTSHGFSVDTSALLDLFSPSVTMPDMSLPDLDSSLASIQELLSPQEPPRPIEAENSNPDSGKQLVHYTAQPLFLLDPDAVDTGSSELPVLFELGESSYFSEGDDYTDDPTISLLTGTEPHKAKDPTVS

cells [13] = format: functional, cell-based
[14] = blockade of melanocortin 4 receptor signaling – cell-based, plate reader, cherry pick, counter-screen for LGR2 antagonist project, dose response (AID 743444); format: functional;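 further: transfected HEK 293 cells stimulated with alpha-MSH peptide; potency of inhibitors of the alpha-MSH evoked signal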
[15] = viability loss in HEK293 cells – cell-based, plate reader, cherry-picked samples, cytotoxicity control, dose response (AID 743446); format: functional
[16] = alpha-synuclein stem-loop luciferase translation blockers – H4 neuroglioma cells, luminescence, confirmation (AID 1988); format: functional, cell-based
[17] = blockers of bursicon-stimulated LGR2 cAMP reporter – cell-based, HEK293, CRE-luciferase reporter, cherry pick, set 2, dose response (AID 743343); format: functional;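 further: transfected cells were stimulated with diluted bursicon conditioned medium after compound addition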
Major prion protein = Major prion protein (Homo sapiens, UniProt P04156); format: functional, cell-based
cells [18] = test: cells
SUMO-activating enzyme [19] = target: T2, SUMO-activating enzyme (Homo sapiens, UniProt Q9UBT2); test: blockers of UBC9-mediated SUMO conjugation – biochemical, AlphaScreen, SUMOylation inhibitor project, confirmation (AID 2018); format: functional
[20] = target: Tyrosine-protein phosphatase non-receptor type 5 (Homo sapiens, UniProt P54829); test: PTPN5 enzyme inhibition – biochemical, fluorescence intensity, uHTS hits, confirmation (AID 602372); format: functional; settings: read-out: IC50_Mean
[21] = target: T3, Carboxy-terminal domain RNA polymerase II polypeptide A small phosphatase 1 (Homo sapiens, UniProt Q9GZU7); test: CTDSP1 inhibitors, concentration-response, biochemical, absorbance readout, ultra-high-throughput screen actives (AID 540297); format: functional
T3 sequence (Q9GZU7 whole entry): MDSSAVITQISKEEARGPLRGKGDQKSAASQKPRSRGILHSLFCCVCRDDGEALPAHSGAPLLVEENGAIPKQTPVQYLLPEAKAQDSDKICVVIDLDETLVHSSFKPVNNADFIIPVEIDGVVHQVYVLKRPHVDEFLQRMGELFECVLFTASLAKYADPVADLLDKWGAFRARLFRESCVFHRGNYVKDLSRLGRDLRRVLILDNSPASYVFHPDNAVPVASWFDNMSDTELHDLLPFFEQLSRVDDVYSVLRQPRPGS

[22] = target: Tyrosine-protein phosphatase non-receptor type 11 (Homo sapiens, UniProt Q06124); test: PTPN11 enzyme inhibitors – biochemical, selectivity assay for STEP inhibitor project, dose response (AID 602367); format: functional; settings: read-out: IC50_Mean
[23] = target: Polyadenylate-binding protein 1 (Homo sapiens, UniProt P11940); test: blockers of PABP interaction with poly(A) – biochemical, fluorescence polarization, […] (AID 2014)
SUMO-activating enzyme [24] = target: T2, SUMO-activating enzyme; test: blockers of SAE1/SAE2–UBC9 SUMO transfer – biochemical, HTRF, uHTS, primary screen (AID 2006); format: protein-complex assay
[25] = target: Eukaryotic translation initiation factor 4H (Homo sapiens, UniProt Q15056); test: eIF4H binding inhibition – biochemical, uHTS, fluorescence polarization, translation initiation inhibitor project, primary screen (AID 2012)
H9c2 = test: cells; format: functional, cell-based; settings: Rattus norvegicus, H9c2, Myocardium;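 further: confirmatory concentration-response retest of ultra-high-throughput screening hits for modulation of myocardial damage; cell death induced by hydrogen peroxide oxidative stress; compound pretreatment for 60 min then peroxide exposure for 2 h; potency is for protecting the cells against peroxide damage rather than for killing them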
[26] = target: Dual specificity protein phosphatase 3 (Homo sapiens, UniProt P51452); test: VHR phosphatase inhibition, dose response, selectivity assay for STEP inhibitor project, biochemical (AID 602374); format: functional; settings: read-out: IC50_Mean
[27] = target: Adenosylmethionine-8-amino-7-oxononanoate aminotransferase (Mycobacterium tuberculosis, UniProt P9WQ81); test: Mycobacterium tuberculosis BioA enzyme inhibitor Measured in Biochemical System Using Plate Reader - 2163-02_Inhibitor_Dose_CherryPick_Activity.; format: functional, Mycobacterium tuberculosis UT205
[28] = target: Disintegrin and metalloproteinase domain-containing protein 17 (Homo sapiens, UniProt P78536); test: exosite inhibitors of ADAM17, dose response, biochemical (AID 743260)
HeLa = test: viability loss in HeLa cells – cell-based, ATP luminescence, cherry-pick samples, cytotoxicity control, dose response (AID 687004); format: functional
[29] = inhibition of ADAM10 peptide cleavage – biochemical, FRET peptide substrate, recombinant human ADAM10, selectivity assay for ADAM17 exosite inhibitor project, dose response (AID 743259);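 further: ADAM10 enzyme cleaving a FRET peptide substrate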
Cryptococcus neoformans = test: PubChem AID 686997; format: functional, organism-based
[30] = IGROV1 cell killing – plate reader, dry powder samples, PAX8 inhibitor project, dose response (AID 743043); format: functional, cell-based; settings: IGROV-1
[31] = OVCAR-3 cell viability loss – plate reader, dry powder samples, PAX8 inhibitor project, dose response (AID 743044); format: functional, cell-based
[32] = general cell-killing toxicity readout – plate reader, dry powder samples, cytotoxicity control for PAX8 inhibitor project, dose response (AID 743021); format: functional, cell-based
Paired box protein Pax-8 = Paired box protein Pax-8 (Homo sapiens, UniProt Q06710); test: PAX8 transcriptional activity inhibition in RMG-I – RMG-I cells, luciferase, cherry-pick, dose response (AID 687027); format: functional, cell-based;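 further: luciferase reporter driven by Pax8 target thyroperoxidase promoter measured by SteadyGlo luminescence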
[33] = P. falciparum Dd2 growth inhibitors, dose response, SYBR Green, cherry-picked samples (AID 1159567); format: functional, cell-based
[34] = toxicity to human hepatoma HepG2 cells – cell-based, cherry-picked samples, cytotoxicity control, dose response (AID 1159577); format: functional
[35] = OVCAR8 cell viability loss – plate reader, dry powder samples, PAX8 project, dose response (AID 743197); format: functional, cell-based; settings: OVCAR-8

COc1cc2c(cc1OC)CN(C(=O)CN1C(=O)NC3(CCC(C)CC3)C1=O)CC2 (configuration not stated)
inactive: IC50 (Steroidogenic factor 1) 11.3 µM | IC50 [1] 35.9 µM | IC50 [2] 13.4 µM

CCCS(=O)(=O)c1cnc(C2COc3ccccc3O2)nc1N (configuration not stated)
> 39.8 µM (not active): IC50 [11]
inconclusive: EC50 (cells [13]) > 12 µM
active: EC50 [3] 0.132 µM | AC50 [4] 34.2 µM | AC50 [5] 40.1 µM | EC50 [6] 0.862 µM | EC50 [7] 1.06 µM | EC50 [8] 0.197 µM | EC50 [9] 14.4 µM | EC50 [10] 3.05 µM | EC50 [12] < 0.16 µM | AC50 [14] 1.2 µM | AC50 [15] 26.6 µM | EC50 [16] < 0.1 µM | AC50 [17] 1.45 µM

Brc1ccc2nc(-c3ccco3)c(Cc3ccccc3)n2c1
active: IC50 (Major prion protein) 6.67 µM
inactive: IC50 (cells [18]) 113 µM

COc1cc(/C=N/NC(=O)c2ccccc2O)ccc1OCC(=O)Nc1ccccc1
inactive: IC50 [20] 26.2 µM | IC50 [23] > 100 µM | IC50 (H9c2) > 79 µM
active: IC50 (SUMO-activating enzyme [19]) 16.4 µM | IC50 [21] 5.46 µM | IC50 [22] 1.25 µM | IC50 (SUMO-activating enzyme [24]) 8.71 µM | IC50 [25] 15.4 µM | IC50 [26] 4.1 µM

CCNC(=O)[C@@H]1[C@@H](CO)[C@@H]2Cn3c(ccc(-c4cccnc4)c3=O)[C@@H]2N1Cc1ccc2c(c1)OCO2
active: AC50 [27] 9.24 µM

COC(=O)C1=C(C)N(Cc2ccc(Br)cc2)C(=S)NC1c1ccc(F)cc1 (configuration not stated)
active: AC50 (Cryptococcus neoformans) 23.2 µM | AC50 (Cryptococcus neoformans; Cryptococcus neoformans) 40.3 µM
inactive: IC50 [28] > 69.6 µM | AC50 (HeLa) > 52 µM | AC50 (HeLa; Homo sapiens) > 47 µM | IC50 [29] 52.8 µM

COc1ccccc1NC(=O)N1CCCCN2[C@H](CO)[C@H](c3ccc(-c4cccc(C)c4)cc3)[C@H]2C1
active: AC50 [30] 64.1 µM | AC50 [31] 22.8 µM | AC50 [32] 2.56 µM | AC50 (Paired box protein Pax-8) 14.6 µM | AC50 [33] 1.44 µM | AC50 [34] 9.66 µM

O=C(C1CCCC1)N1CC[C@@H]2[C@H](CO)Nc3ccc(C4=CCCCC4)cc3[C@@H]21
active: AC50 [35] 33.1 µM | AC50 [31] 25.5 µM | AC50 (Paired box protein Pax-8) 12.7 µM | AC50 [33] 5.7 µM
inactive: AC50 [34] > 39 µM
